Experimental data reported in patent US20250179092A1, “PYRIDO[1,2-A]PYRIMIDIN-4-ONE DERIVATIVES” (Hoffmann-La Roche Inc., priority 2022, published 2025).

These molecules were tested on mutant HTT protein (mHTT) (assay: Homogeneous Time Resolved Fluorescence (HTRF) assay for HTT lowering). Settings: reduction of mHTT in Huntington patient human cells (GENEAe020-A cell line), 48 hours incubation, mean from three replicates.
Assay type: cell-based
Procedure: Homogeneous Time Resolved Fluorescence for HTT Lowering
The HTRF assay was adapted from Weiss et al. (Analytical Biochemistry Volume 395, Issue 1, 1 Dec. 2009, Pages 8-15 and Analytical Biochemistry Volume 410, 2011, Pages 304-306) to cells from GENEAe020-A cell line (https.//hpscreg.eu/cell-line/GENEAe020-A).
Compounds were tested for the effect of mutant HTT levels in Huntington patient human cells (GENEAe020-A cell line) using Homogeneous Time Resolved Fluorescence (HTRF) directed towards mutant HTT protein (mHTT). The GENEAe020-A cell line was derived by Genea Biocells from human blastocysts of HD donors. After assessing viability, cells were plated into 384 well collagen coated plates in growth media. Once cells adhered, media was removed and test compounds dissolved in DMSO were diluted with buffer solution and added to the adherent cells. Controls included experiments with no cells, DMSO with no compound, and Hsp90 inhibitor control. Cells were incubated with compounds and controls for 48 hours. Then, the cells were lysed and transferred to an assay plate containing HTRF labeled monoclonal antibodies developed by Paul Patterson (Ko et al., Brain Research Bulletin, Volume 56, Numbers 3 and 4, 2001, Pages 319-329) which recognize specific areas of the HTT protein. The terbium labeled “donor” antibody (2B7) binds to the N-terminus of the HTT protein and the Alexa488 labeled “acceptor” antibody (MW1) is specific for the polyglutamine region of the protein. Binding of the acceptor labeled antibody is more efficient for the extended polyglutamine repeats of mutant HTT protein which translates into a signal boost which enables the specific measurement of mutant HTT protein level. The HTRF donor and acceptor detection reagents were incubated with the cell lysate and the ratio between the signals of the two fluorophores is indicative of the relative quantities of mHTT.

SMILES	EC50
Cc1nc2c(C)cc(-c3cc(=O)n4cc(C5CCNC6(CC6)C5)ccc4n3)nc2o1 (racemic) [Example 4, rac-7-(4-azaspiro[2.5]octan-7-yl)-2-(2,7-dimethyloxazolo[5,4-b]pyridin-5-yl)pyrido[1,2-a]pyrimidin-4-one]	49 nM
Cc1cn2nc(-c3cc(=O)n4cc(C5CCNC6(CC6)C5)ccc4n3)cc(C(F)(F)F)c2n1 (racemic) [Example 3, rac-7-(4-azaspiro[2.5]octan-7-yl)-2-[2-methyl-8-(trifluoromethyl)imidazo[1,2-b]pyridazin-6-yl]pyrido[1,2-a]pyrimidin-4-one]	40 nM
O=c1cc(-c2ccc3nc(Cl)cn3n2)nc2ccc(C3CCNC4(CC4)C3)cn12 (racemic) [Example 5, rac-7-(4-azaspiro[2.5]octan-7-yl)-2-(2-chloroimidazo[1,2-b]pyridazin-6-yl)pyrido[1,2-a]pyrimidin-4-one]	259 nM
COc1cc(-c2cc(=O)n3cc(C4CCNC5(CC5)C4)ccc3n2)nn2cc(C)nc12 (racemic) [Example 2, rac-7-(4-azaspiro[2.5]octan-7-yl)-2-(8-methoxy-2-methyl-imidazo[1,2-b]pyridazin-6-yl)pyrido[1,2-a]pyrimidin-4-one]	21 nM
Cc1cn2nc(-c3cc(=O)n4cc(C5CCNC6(CC6)C5)ccc4n3)cc(C)c2n1 (racemic) [Example 1, rac-7-(4-azaspiro[2.5]octan-7-yl)-2-(2,8-dimethylimidazo[1,2-b]pyridazin-6-yl)pyrido[1,2-a]pyrimidin-4-one]	31 nM
